# What was measured:
# [1] = target: GST-tagged KRAS-G12D (2-169) (Homo sapiens, UniProt P01116, G12D); experiment: Nucleotide exchange assay (NEA), SOS-mediated, HTRF, KRAS G12D; assay type: biochemical; settings: Table 4; IC50 extracted at 30 min; 20 nM SOScat; read-out: NEA G12D IC50
# Method in brief: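 SOS1cat-driven loading of fluorescent GTP-DY-647P1 (150 nM) onto GST-KRAS-G12D (2-169, 0.25 nM) read by time-resolved FRET; SOScat 20 nM, compound preincubated with KRAS 1 h at RT. Signal blanked to no-SOS reactions, normalized to DMSO; IC50 fitted from the 30-min read.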
# [2] = target: GST-tagged KRAS-G12V (2-169) (Homo sapiens, UniProt P01116, G12V); experiment: Nucleotide exchange assay (NEA), SOS-mediated, HTRF, KRAS G12V; assay type: biochemical; settings: Table 4; IC50 extracted at 90 min; 80 nM SOS
# GST-tagged KRAS-G12V (2-169), sequence (P01116 2-169 isoform P01116-2 G12V): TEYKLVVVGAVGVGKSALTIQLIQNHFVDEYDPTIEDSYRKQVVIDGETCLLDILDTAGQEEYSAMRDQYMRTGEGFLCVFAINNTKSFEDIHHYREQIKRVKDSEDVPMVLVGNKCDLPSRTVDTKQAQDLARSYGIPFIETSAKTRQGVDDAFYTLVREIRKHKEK
# Method in brief: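 Exchange onto fluorescent GTP-DY-647P1 (150 nM final) catalysed by 80 nM SOS1cat was followed by Tb-anti-GST HTRF at RT for up to 90 min, after 1 h compound pre-incubation with 0.25 nM GST-tagged KRAS-G12V (2-169), pH 7.3. DMSO = 0%, no-SOS blank = 100%; 4-parameter IC50 taken at 90 min.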
# [3] = system: phospho-ERK in GP2D (KRAS-G12D) cells; experiment: pERK In Cell Western (ICW) assay (Method B), GP2D; assay type: cell-based; settings: GP2d, 3 h, Table 4
# Method in brief: (§1)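 After overnight attachment, cells received nine half-log compound concentrations for 3 hours, were fixed, permeabilized and probed with phospho-ERK antibody plus DRAQ5. Normalized pERK signal versus blank control yields IC50 via variable-slope four-parameter fit.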
# [4] = system: phospho-ERK in SW620 (KRAS-G12V) cells; experiment: pERK In Cell Western (ICW) assay (Method B), SW620; assay type: cell-based; settings: Homo sapiens, SW-620, 3 h, Table 4
# Method in brief: as §1
# GST-tagged KRAS-G12D (2-169), sequence (P01116 2-169 isoform P01116-2 G12D): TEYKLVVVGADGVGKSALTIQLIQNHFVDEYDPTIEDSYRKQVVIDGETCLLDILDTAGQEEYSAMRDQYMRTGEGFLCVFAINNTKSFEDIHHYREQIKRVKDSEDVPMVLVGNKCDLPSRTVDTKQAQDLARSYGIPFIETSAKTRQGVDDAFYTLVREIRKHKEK
SMILES,IC50 [1] [nM],IC50 [2] [nM],IC50 [3] [nM],IC50 [4] [nM]
"N#Cc1c(N)sc2c1C1(CC2)CN(c2nc(OC[C@@]34CCCN3C[C@H](F)C4)nc(N3CCCCC(C#N)C3)n2)C1 (stereo partly drawn) [Compound 74, 2-amino-1′-[4-(3-cyanoazepan-1-yl)-6-[[(2R,8S)-2-fluoro-1,2,3,5,6,7-hexahydropyrrolizin-8-yl]methoxy]-1,3,5-triazin-2-yl]spiro[5,6-dihydrocyclopenta[b]thiophene-4,3′-azetidine]-3-carbonitrile]",10 to 100,< 10,100 to 1000,100 to 1000
"N#CCC1(O)CCCN(c2nc(OC[C@@]34CCCN3C[C@H](F)C4)nc(N3CC4(CCc5sc(N)c(C#N)c54)C3)n2)C1 (stereo partly drawn) [Compound 79, 2-amino-1′-[4-[3-(cyanomethyl)-3-hydroxy-1-piperidyl]-6-[[(2R,8S)-2-fluoro-1,2,3,5,6,7-hexahydropyrrolizin-8-yl]methoxy]-1,3,5-triazin-2-yl]spiro[5,6-dihydrocyclopenta[b]thiophene-4,3′-azetidine]-3-carbonitrile; 2,2,2-trifluoroacetic acid]",10 to 100,< 10,100 to 1000,1000 to 20000
"N#Cc1c(N)sc2c1C1(CC2)CN(c2nc(OC[C@@]34CCCN3C[C@H](F)C4)nc(N3CCC[C@@H](O)[C@@H](O)C3)n2)C1 [Compound 81, 2-amino-1′-[4-[(3S,4R)-3,4-dihydroxyazepan-1-yl]-6-[[(2R,8S)-2-fluoro-1,2,3,5,6,7-hexahydropyrrolizin-8-yl]methoxy]-1,3,5-triazin-2-yl]spiro[5,6-dihydrocyclopenta[b]thiophene-4,3′-azetidine]-3-carbonitrile; 2,2,2-trifluoroacetic acid]",< 10,< 10,100 to 1000,1000 to 20000
"CC1(O)CC(F)CN(c2nc(OC[C@@]34CCCN3C[C@H](F)C4)nc(N3CC4(CCc5sc(N)c(C#N)c54)C3)n2)C1 (stereo partly drawn) [Compound 82, 2′-amino-1-(4-(5-fluoro-3-hydroxy-3-methylpiperidin-1-yl)-6-(((2R,7aS)-2-fluorotetrahydro-1H-pyrrolizin-7a(5H)-yl)methoxy)-1,3,5-triazin-2-yl)-5′,6′-dihydrospiro[azetidine-3,4′-cyclopenta[b]thiophene]-3′-carbonitrile]",< 10,< 10,10 to 100,100 to 1000
"N#Cc1c(N)sc2c1C1(CC2)CN(c2nc(NCc3ccn[nH]3)nc(OC[C@@]34CCCN3C[C@H](F)C4)n2)C1 [Compound 84, 2-amino-1′-[4-[[(2R,8S)-2-fluoro-1,2,3,5,6,7-hexahydropyrrolizin-8-yl]methoxy]-6-(1H-pyrazol-5-ylmethylamino)-1,3,5-triazin-2-yl]spiro[5,6-dihydrocyclopenta[b]thiophene-4,3′-azetidine]-3-carbonitrile]",100 to 1000,100 to 1000,1000 to 20000,≥ 20000
"N#Cc1c(N)sc2c1C1(CC2)CN(c2nc(OC[C@@]34CCCN3C[C@H](F)C4)nc(N3CCCC(O)(CO)C3)n2)C1 (stereo partly drawn) [Compound 85, 2-amino-1′-[4-[3-hydroxy-3-(hydroxymethyl)-1-piperidyl]-6-[[(2R,8S)-2-fluoro-1,2,3,5,6,7-hexahydropyrrolizin-8-yl]methoxy]-1,3,5-triazin-2-yl]spiro[5,6-dihydrocyclopenta[b]thiophene-4,3′-azetidine]-3-carbonitrile]",100 to 1000,10 to 100,1000 to 20000,1000 to 20000
"N#Cc1c(N)sc2c1C1(CC2)CN(c2nc(OCC3(CN4CCOCC4)CC3)nc(N3CCCCC(C#N)C3)n2)C1 (stereo not shown) [Compound 86, 2-amino-1′-[4-(3-cyanoazepan-1-yl)-6-[[1-(morpholinomethyl)cyclopropyl]methoxy]-1,3,5-triazin-2-yl]spiro[5,6-dihydrocyclopenta[b]thiophene-4,3′-azetidine]-3-carbonitrile]",10 to 100,10 to 100,100 to 1000,1000 to 20000
"N#Cc1c(N)sc2c1C1(CC2)CN(c2nc(OC[C@@]34CCCN3C[C@H](F)C4)nc(N3CCCC(O)(C(F)F)C3)n2)C1 (stereo partly drawn) [Compound 87, 2-amino-1′-[4-[3-(difluoromethyl)-3-hydroxy-1-piperidyl]-6-[[(2R,8S)-2-fluoro-1,2,3,5,6,7-hexahydropyrrolizin-8-yl]methoxy]-1,3,5-triazin-2-yl]spiro[5,6-dihydrocyclopenta[b]thiophene-4,3′-azetidine]-3-carbonitrile]",10 to 100,10 to 100,100 to 1000,1000 to 20000
"N#Cc1c(N)sc2c1C1(CC2)CN(c2nc(OC[C@@]34CCCN3C[C@H](F)C4)nc(N3CCCOCC3)n2)C1 [Compound 89, 2-amino-1′-[4-[[(2R,8S)-2-fluoro-1,2,3,5,6,7-hexahydropyrrolizin-8-yl]methoxy]-6-(1,4-oxazepan-4-yl)-1,3,5-triazin-2-yl]spiro[5,6-dihydrocyclopenta[b]thiophene-4,3′-azetidine]-3-carbonitrile]",10 to 100,< 10,100 to 1000,100 to 1000
"CC1(O)CC(F)CN(c2nc(OCC3(CN4CCOCC4)CC3)nc(N3CC4(CCc5sc(N)c(C#N)c54)C3)n2)C1 (stereo not shown) [Compound 93, 2′-amino-1-(4-(5-fluoro-3-hydroxy-3-methylpiperidin-1-yl)-6-((1-(morpholinomethyl)cyclopropyl)methoxy)-1,3,5-triazin-2-yl)-5′,6′-dihydrospiro[azetidine-3,4′-cyclopenta[b]thiophene]-3′-carbonitrile]",< 10,< 10,10 to 100,10 to 100
"CC(c1cccnc1N)N(C)c1nc(OCC2(CN3CCOCC3)CC2)nc(N2CC3(CCc4sc(N)c(C#N)c43)C2)n1 (stereo not shown) [Compound 97, 2-amino-1′-[4-[1-(2-amino-3-pyridyl)ethyl-methyl-amino]-6-[[1-(morpholinomethyl)cyclopropyl]methoxy]-1,3,5-triazin-2-yl]spiro[5,6-dihydrocyclopenta[b]thiophene-4,3′-azetidine]-3-carbonitrile]",10 to 100,< 10,1000 to 20000,100 to 1000
"C[C@@]1(O)CCCN(c2nc(OCC3(CN4CCOCC4)CC3)nc(N3CC4(C3)c3c(sc(N)c3C#N)CC4(F)F)n2)C1 [Compound 98, 2-amino-5,5-difluoro-1′-[4-[(3R)-3-hydroxy-3-methyl-1-piperidyl]-6-[[1-(morpholinomethyl)cyclopropyl]methoxy]-1,3,5-triazin-2-yl]spiro[6H-cyclopenta[b]thiophene-4,3′-azetidine]-3-carbonitrile]",< 10,< 10,10 to 100,100 to 1000
"N#CCC1(O)CCCN(c2nc(OCC3(CN4CCOCC4)CC3)nc(N3CC4(CCc5sc(N)c(C#N)c54)C3)n2)C1 (stereo not shown) [Compound 101, 2-amino-1′-[4-[3-(cyanomethyl)-3-hydroxy-1-piperidyl]-6-[[1-(morpholinomethyl)cyclopropyl]methoxy]-1,3,5-triazin-2-yl]spiro[5,6-dihydrocyclopenta[b]thiophene-4,3′-azetidine]-3-carbonitrile]",10 to 100,< 10,100 to 1000,1000 to 20000
"CN(C)CC1(COc2nc(N3CC4(C3)SCc3sc(N)c(C#N)c34)nc(N3CCC[C@@](C)(O)C3)n2)CC1(F)F (stereo partly drawn) [Compound 104, 2-amino-1′-[4-[[1-[(dimethylamino)methyl]-2,2-difluoro-cyclopropyl]methoxy]-6-[(3R)-3-hydroxy-3-methyl-1-piperidyl]-1,3,5-triazin-2-yl]spiro[6H-thieno[2,3-c]thiophene-4,3′-azetidine]-3-carbonitrile]",< 10,< 10,< 10,10 to 100
"N#Cc1c(N)sc2c1C1(CC2)CN(c2nc(OCC3(CN4CCOCC4)CC3)nc(N3CCCC(O)(C(F)F)C3)n2)C1 (stereo not shown) [Compound 106, 2-amino-1′-[4-[3-(difluoromethyl)-3-hydroxy-1-piperidyl]-6-[[1-(morpholinomethyl)cyclopropyl]methoxy]-1,3,5-triazin-2-yl]spiro[5,6-dihydrocyclopenta[b]thiophene-4,3′-azetidine]-3-carbonitrile]",10 to 100,10 to 100,100 to 1000,1000 to 20000
"N#Cc1c(N)sc2c1C1(CC2)CN(c2nc(OC[C@@]34CCCN3C[C@H](F)C4)nc(N(CCO)Cc3cccnc3N)n2)C1 [Compound 107, 2-amino-1′-[4-[(2-amino-3-pyridyl)methyl-(2-hydroxyethyl)amino]-6-[[(2R,8S)-2-fluoro-1,2,3,5,6,7-hexahydropyrrolizin-8-yl]methoxy]-1,3,5-triazin-2-yl]spiro[5,6-dihydrocyclopenta[b]thiophene-4,3′-azetidine]-3-carbonitrile]",< 10,< 10,10 to 100,10 to 100

# From patent publication US12421254B2, “KRAS modulators and uses thereof” (Quanta Therapeutics, Inc., priority 2023, dated 2025)
